The half-life is how long it takes for the measured level to halve. Usually EC50 stands for the concentration that produces a half-maximal response.

1 molecule from patent US9351971B2, “Substituted 2,2′-biphenazines for treating diseases” (Eutropics Pharmaceuticals, Inc., priority 2010, dated 2016) can be followed below.

“Also recorded” adds a separate entry of the source.

The nature of data set [1]: Pharmacokinetics of compound II-19 i.p. in male ICR mice. It counts as in vivo, mouse. The conditions noted are these: 10 mg/kg. The procedure: FIG. 11 is a graph of the pharmacokinetics of compound II-19 clearance in mouse plasma. Pharmacokinetic profile of Compound II-19 in. male ICR mice is shown. Compound II-19 was dissolved in 5% DMSO, 15% hydroxypropyl-beta-cyclodexmain, and 50 mM Tris in water to yield a nominal concentration of 5 mg/mL. This solution was administered intraperintoncally to […] male ICR mice at a dose of 10 mg/kg. Three mice in each group were used for blood, collection, at each of 8 time points: 5 minutes, 0.25 hrs, 0.5 hrs, 1 hr, 2 hrs, 4 hrs, 8 hrs, and 24 hrs postdose. Plasma samples at these time points were analyzed for the quantity of compound II-19 by standard liquid chromatography/mass spectroscopy methods.
Pharmacokinetic studies were conducted on compound II-19 to assess plasma clearance and distribution in male ICR mice. Compounds were administered i.p. (as in the xenograft study, Example 8) at 10 mg/kg. Blood samples were collected at various time points (pre-injection, 5 min, 15 min, 30 min, 1 h, 2 h, 4 h, 8 h and 24 h), and centrifuged to remove red blood cells. […] Plasma levels of drug were quantified by LC-MS (C18 column elided with linear gradient from 0% acetonitrile, 1% formic acid to 100% acetonitrile, 1% formic acid) against a set of standards prepared by diluting a known quantity of II-19 into mouse plasma.

Data set [2] concerns SUDHL-10 cell line. Nature of the data set: Cell viability MTS assay, SUDHL-10 (Bax/Bak deficient). It counts as cell-based, human. The procedure:
(§1) The lymphoid derived cell lines DHL-6 and DHL-10 were obtained from Anthony Letai of the Dana Father Cancer Research Institute, Boston, Mass. The […] derived cell line NCP-H929 was obtained irons, the NIH/NCI cell repository. AML-3 cells were obtained from Dr. Michael Andreef (MD Anderson Cancer Center, Houston, Tex.). Cells were grown in RPMI 1640 medium (GIBCO-BRL) supplemented with Pen-strep-glutamine (Gibco 10378) and 5% fetal bovine serum.
(§2) Cells were expanded in tissue culture in appropriate media and then subcultured into 96-well plates at a seeding density of 20,000-40,000 cells per well, and cells were treated with one or more compounds that were titrated info appropriate medium with FCS. Cell lines were treated with compound A at concentrations ranging from 25 μM to 25 nM. The BH3-mimetic obatoclax (Nguyen M et al. (2007), Proc. Natl. Acad. Sci. USA 104:19512-19517) was also tested against the SUDHL-6, SUDHL-10, and NCI-H929 cell lines. Cells were treated for 48 hours and scored for viability using the MTS assay (Promega). Growth inhibition was indicated as a percentage of control cell growth. Growth was determined by measuring the A570 (control cells)—A570 (treated cells)/A570 (control cells). EC50 values were calculated using Graphpad Prizm software.
For orientation: Tetrazolium dyes change colour on reduction, which living cells bring about.

Data set [3] concerns SUDHL-6 lymphoid cell line. The data set is described as follows: Cell viability MTS assay, SUDHL-6. It counts as cell-based. The conditions noted are these: Homo sapiens, SU-DHL-6, 48 hours, read-out: EC50, cell killing in SUDHL-6. The procedure:
as §1, §2

The subject of data set [4] is NCI-H929 multiple myeloma cell line. The data set is described as follows: Cell viability MTS assay, NCI-H929. To be noted: Homo sapiens, 48 hours, read-out: EC50, cell killing in NCI-H929. It counts as cell-based. The procedure:
as §1, §2

Data set [5] has as its system mitochondria in semi-permeabilized SUDHL-10 cells. The data set is described as follows: In situ mitochondrial assay (cytochrome c release), SUDHL-10. Type of data set: cell-based. To be noted: SUDHL-10 (DHL-10), Bax/Bak deficient, 10 uM. The text has this: The on-target activity of compound II-19 was validated. Changes in mitochondrial integrity were observed utilizing anti-cytochrome c conjugated to Alcxa488 (BD). When the mitochondria are intact, they retain cytochrome c and have bright, punctate staining with the antibody whereas cells with compromised mitochondrial integrity will lose cytochrome c and will not stain with the antibody. This can be observed by microscopy as well as measured by a shift in fluorescence on the FL1 channel of a flow cytometer.
The selective response of mitochondria in semi-permeabilized cell lines to the compounds was observed. The assay was adapted from (Campos et al. (2006) Cytometry Part A. 69(A):515-523).
Suspension cell lines SUDHL10 and SUDHL6 were grown in RPMI, washed once in 1xPBS and re-suspended at a concentration of 2e6/ml in assay buffer with 0.0025% Digitonin. Assay buffer; 300 mM Trehalose, 10 mM HEPES-KOH pH 7.7, 80 mM KCl, 1 mM EGTA, 1 mM EDTA, 0.1% BSA, 5 mM Succinate. Cells are incubated with test and control compounds at 10^6 cells/treatment for 1 hour at room temperature. […] Cytochrome c loss was measured by microscopy. At least 100 cells per treatment were counted and scored as positive for cytochrome c loss if they lacked staining. In both methods DMSO was calculated as 0% cytochrome c loss and the Bim response for DHL6 was used to determine 100% cytochrome c loss.

For `COC(=O)c1ccc(O)c2nc3c(C=O)c(O)c(-c4c(O)c(C=O)c5nc6c(O)ccc(C(=O)OC)c6nc5c4O)c(O)c3nc12` [II-19, dimethyl 4,4′-diformyl-1,1′,3,3′,6,6′-hexahydroxy-[2,2′-biphenazine]-9,9′-dicarboxylate], the “time for which circulating drug levels can be sustained” value in data set [1] is given as > 24 h. The half-life in data set [1] (mouse, plasma, ip) was > 20 h. For the same molecule, the EC50 in data set [2] (Homo sapiens, SU-DHL10, 48 hours, MTS assay, Bax/Bak deficient cell line, read-out: EC50, cell killing in SUDHL-10) was > 20 µM; in data set [3] it was 3 µM; in data set [4], 8 µM. In data set [2] (cell killing, FIG. 4d), the “activity against the Bax/Bak deficient cell line SUDHL-10 (in words)” value is on record as “absence of activity”. Besides, in data set [5], the “cytochrome c release from mitochondria” value is reported as “but not BAX/BAK-deficient SUDHL-10 cell line; also recorded: lack of activity”.
